Results from patent publication US8598204B2, “1,2-dihydro-2-oxoquinoline compounds as 5-HT4 receptor ligands” (Suven Life Sciences Limited, priority 2009, dated 2013).
Where a name gives a salt, the structure may show the parent alone.

How the values were obtained:
[1] = biological target: T1, recombinant human 5-HT4 receptor (Homo sapiens, UniProt Q13639); test: Determination of EC50 values for 5-HT4 receptor (CRE-luciferase reporter, CHO cells); format: cell-based; conditions: stable CHO cell line expressing recombinant human 5-HT4 receptor and pCRE-Luc reporter; 4 hours incubation; luciferase activity
T1 construct: expressed in transfected cells
Protocol: A stable CHO cell line expressing recombinant human 5-HT4 receptor and pCRE-Luc reporter system was used for cell-based assay. The assay offers a non-radioactive based approach to determine binding of a compound to GPCRs. In this specific assay, the level of intracellular cyclic AMP which is modulated by activation or inhibition of the receptor is measured. The recombinant cells harbor luciferase reporter gene under the control of cAMP response element.
The above cells were grown in 96 well clear bottom white plates in Hams F12 medium containing 10% fetal bovine serum (FBS). Prior to the addition of compounds or standard agonist, cells were serum starved overnight. Increasing concentrations of test compounds were added in OptiMEM medium to the cells. The incubation was continued at 37° C. in CO2 incubator for 4 hours. Medium was removed and cells were washed with phosphate buffered saline. The cells were lysed and luciferase activity was measured in a Luminometer. Luminescence units were plotted against the compound concentrations using Graphpad software. EC50 values of the compounds were defined as the concentration required in stimulating the luciferase activity by 50%.

[2] = Rodent pharmacokinetic study; format: in vivo; conditions: Wistar, rat, plasma, Wister/Male rats, 5 mg/kg; for AUC(0-t) / Cmax / Tmax / half-life: vehicle Water
Protocol: Male Wister rats (230-280 grams) obtained from NIN (National Institute of Nutrition, Hyderabad, India) was used as an experimental animal. Three to five animals were housed in each cage. One day prior to dosing day, male wistar rats (225-250 grams) were anesthetized with isoflurane for surgical placement of jugular vein catheter. Animals were kept fasted over night and maintained on a 12 hours light/dark cycle. Three rats were dosed NCE (5 mg/Kg) orally and intravenously on day 0 and day 2.
At each time point blood was collected by jugular vein. Plasma was stored frozen at −20° C. until analysis. The concentrations of the NCE compound in plasma were determined using LC-MS/MS method. Schedule time points: Pre dose 0.25, 0.5, 1, 1.5, 2, 3, 4, 6, 8, 10, 12 and 24 hours after dosing (n=3). The NCE compounds were quantified in plasma by validated LC-MS/MS method using solid phase extraction technique. NCE compounds were quantified in the calibration range of 2-2000 ng/mL in plasma. Study samples were analyzed using calibration samples in the batch and quality control samples spread across the batch.
Pharmacokinetic parameters Cmax, Tmax, AUCt, T1/2 and Bioavailability were calculated by non-compartmental model using software WinNonlin version 5.0.1.

[3] = Rodent brain penetration study; format: in vivo; conditions: Wistar, rat; Wister/Male rats, 10 mg/kg, Oral, vehicle Water; brain/plasma; read-out: Steady State Brain Penetration (Cb/Cp)
Protocol: Male Wister rats (230-280 grams) obtained from NIN (National Institute of Nutrition, Hyderabad, India) was used as an experimental animal. Three animals were housed in each cage. Animals were given water and food ad libitum throughout the experiment, and maintained on a 12 hours light/dark cycle.
Brain penetration was determined in discrete manner in rats. One day prior to dosing day, male wistar rats (225-250 grams) were acclimatized. After acclimatization the rats were grouped according to the weight in each group, 3 animals were kept in individual cage and allowed free access to food and water. At each time point (0.5, 1, and 2 hours) n=3 animals were used.
NCE compound was dissolved in water and administered orally at (free base) 10 mg/kg. Blood samples were removed via, cardiac puncture by using isofurane anesthesia the animals were sacrificed to collect brain tissue. Plasma was separated and Brain samples were homogenized and stored frozen at −20° C. until analysis. The concentrations of the NCE compound in plasma and Brain were determined using LC-MS/MS method.
The NCE compounds were quantified in plasma and brain homogenate by validated LC-MS/MS method using solid phase extraction technique. NCE compounds were quantified in the calibration range of 1-500 ng/mL in plasma and brain homogenate. Study samples were analyzed using calibration samples in the batch and quality control samples spread across the batch. Extents of brain-blood ratio were calculated (Cb/Cp).

[4] = tested on: novel object recognition (cognition) in rats; test: Object recognition task model; format: in vivo, rat; conditions: 1 mg/kg p.o.
Protocol: The cognition-enhancing properties of compounds of this invention were estimated using a model of animal cognition: the object recognition task model.
Male Wister rats (230-280 grams) obtained from N. I. N. (National Institute of Nutrition, Hyderabad, India) was used as experimental animals. Four animals were housed in each cage. Animals were kept on 20% food deprivation before one day and given water ad libitum throughout the experiment and maintained on a 12 hours light/dark cycle. Also the rats were habituated to individual arenas for 1 hour in the absence of any objects.
One group of 12 rats received vehicle (1 mL/Kg) orally and another set of animals received compound of the formula (I) either orally or i.p., before one hour of the familiar (T1) and choice trial (T2).
The experiment was carried out in a 50×50×50 cm open field made up of acrylic. In the familiarization phase (T1), the rats were placed individually in the open field for 3 minutes, in which two identical objects (plastic bottles, 12.5 cm height×5.5 cm diameter) covered in yellow masking tape alone (a1 and a2) were positioned in two adjacent corners, 10 cm. from the walls. After 24 hours of the (T1) trial for long-term memory test, the same rats were placed in the same arena as they were placed in (T1) trial. Choice phase (T2) rats were allowed to explore the open field for 3 minutes in presence of one familiar object (a3) and one novel object (b) (Amber color glass bottle, 12 cm high and 5 cm in diameter). Familiar objects presented similar textures, colors and sizes. During the T1 and T2 trial, explorations of each object (defined as sniffing, licking, chewing or having moving vibrissae whilst directing the nose towards the object at a distance of less than 1 cm) were recorded separately by stopwatch. Sitting on an object was not regarded as exploratory activity, however, it was rarely observed.
T1 is the total time spent exploring the familiar objects (a 1+a2).
T2 is the total time spent exploring the familiar object and novel object (a3+b).
The object recognition test was performed as described by Ennaceur, A., Delacour, J., 1988, A new one-trial test for neurobiological studies of memory in rats—Behavioural data, Behav. Brain Res., 31, 47-59.

[5] = choice trial T2 24 hours after T1

T1 sequence (Q13639 whole entry): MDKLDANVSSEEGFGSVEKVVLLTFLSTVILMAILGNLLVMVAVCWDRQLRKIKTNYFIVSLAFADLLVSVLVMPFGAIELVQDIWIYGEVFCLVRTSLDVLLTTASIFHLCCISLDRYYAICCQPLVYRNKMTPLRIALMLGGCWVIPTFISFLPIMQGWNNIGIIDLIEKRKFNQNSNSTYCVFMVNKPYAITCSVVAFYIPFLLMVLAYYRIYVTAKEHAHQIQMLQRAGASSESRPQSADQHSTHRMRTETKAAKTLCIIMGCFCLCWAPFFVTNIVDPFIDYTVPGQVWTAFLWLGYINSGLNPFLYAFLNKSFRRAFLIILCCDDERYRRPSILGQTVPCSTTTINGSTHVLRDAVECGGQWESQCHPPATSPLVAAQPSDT

Compound	EC50 [1]	further results
CC(C)n1c(=O)c(C(=O)NC2CCN(C3C4CC5CC(C4)CC3C5)C2)c(O)c2ccccc21 (centres unmarked) [Example 3, N-[1-(Tricyclo[3.3.1.1^3,7]dec-2-yl)pyrrolidin-3-yl]-4-hydroxy-1-isopropyl-2-oxo-1,2-dihydroquinoline-3-carboxamide]	1110 nM	–
CC(C)n1c(=O)c(C(=O)NC2C3CCN(CC3)C2Cc2ccccc2)c(O)c2ccccc21 (centres unmarked) [Example 16, N-(2-Benzyl-1-azabicyclo[2.2.2]oct-3-yl)-4-hydroxy-1-isopropyl-2-oxo-1,2-dihydroquinoline-3-carboxamide]	3920 nM	–
CC(C)Cn1c(=O)c(C(=O)NCCCN2C3CC4CC(C3)CC2C4)c(O)c2ccccc21 [Example 2, N-[(2-Azatricyclo[3.3.1.1^3,7]dec-2-yl)propyl]-4-hydroxy-1-isobutyl-2-oxo-1,2-dihydroquinoline-3-carboxamide hydrochloride]	4020 nM	–
CC(C)n1c(=O)c(C(=O)NCCCN2C3CC4CC(C3)CC2C4)c(O)c2cc(F)ccc21 [Example 9, N-[(2-Azatricyclo[3.3.1.1^3,7]dec-2-yl)propyl]-6-fluoro-4-hydroxy-1-isopropyl-2-oxo-1,2-dihydroquinoline-3-carboxamide]	935 nM	–
CC(C)n1c(=O)c(C(=O)NCCCN2C3CC4CC(C3)CC2C4)c(O)c2cc(Cl)ccc21 [Example 8, N-[(2-Azatricyclo[3.3.1.1^3,7]dec-2-yl)propyl]-6-chloro-4-hydroxy-1-isopropyl-2-oxo-1,2-dihydroquinoline-3-carboxamide]	3080 nM	–
CC(C)n1c(=O)c(C(=O)NCCCN2C3CC4CC(C3)CC2C4)c(O)c2cc(Br)ccc21 [Example 10, N-[(2-Azatricyclo[3.3.1.1^3,7]dec-2-yl)propyl]-6-bromo-4-hydroxy-1-isopropyl-2-oxo-1,2-dihydroquinoline-3-carboxamide]	2800 nM	–
CC(C)n1c(=O)c(C(=O)NC2C3CCN(CC3)C2Cc2ccccn2)c(O)c2ccccc21 (centres unmarked) [Example 13, N-[2-(Pyridin-2-ylmethyl)-1-azabicyclo[2.2.2]oct-3-yl]-4-hydroxy-1-isopropyl-2-oxo-1,2-dihydroquinoline-3-carboxamide]	462 nM	–
CC(C)n1c(=O)c(C(=O)NCCCN2C3CC4CC2CC(c2ccccc2)(C4)C3)c(O)c2ccccc21 [Example 5, N-[(5-Phenyl-2-azatricyclo[3.3.1.1^3,7]dec-2-yl)propyl]-4-hydroxy-1-isopropyl-2-oxo-1,2-dihydroquinoline-3-carboxamide hydrochloride]	1600 nM	–
CC(C)n1c(=O)c(C(=O)NC23CC4CC(C2)N(C)C(C4)C3)c(O)c2ccccc21 [Example 14, N-(2-Methyl-2-azatricyclo[3.3.1.1^3,7]dec-5-yl)-4-hydroxy-1-isopropyl-2-oxo-1,2-dihydro-quinoline-3-carboxamide]	307 nM	bioavailability ([2]; Oral versus Intravenous): 28 ± 3%; AUC(0-t) ([2]; Intravenous): 820 ± 247 ng·h/mL; Cmax ([2]; Intravenous): 523 ± 57 ng/mL; Tmax ([2]; Intravenous): 0.08 h; half-life ([2]; Intravenous): 3.31 ± 1.47 h; AUC(0-t) ([2]; Oral): 223 ± 50 ng·h/mL; Cmax ([2]; Oral): 67 ± 17 ng/mL; Tmax ([2]; Oral): 0.42 ± 0.14 h; half-life ([2]; Oral): 1.67 ± 0.27 h; Kp [3]: 2.97 ± 0.94
N-[(2-Azatricyclo[3.3.1.1^3,7]dec-2-yl) propyl]-4-hydroxy-1-isobutyl-6-methoxy-2-oxo-1,2-dihydroquinoline-3-carboxamide [Example 7]	1000 nM	–
CC(C)n1c(=O)c(C(=O)NCCCN2C3CC4CC(C3)CC2C4)c(O)c2cc(N)ccc21 [Example 11, N-[(2-Azatricyclo[3.3.1.1^3,7]dec-2-yl)propyl]-6-amino-4-hydroxy-1-isopropyl-2-oxo-1,2-dihydroquinoline-3-carboxamide]	3000 nM	–
CC(C)n1c(=O)c(C(=O)NC2C3CCN(CC3)C2Cc2cccnc2)c(O)c2ccccc21 (centres unmarked) [Example 12, N-[2-(Pyridin-3-ylmethyl)-1-azabicyclo[2.2.2]oct-3-yl]-4-hydroxy-1-isopropyl-2-oxo-1,2-dihydroquinoline-3-carboxamide]	972 nM	–
CC(C)n1c(=O)c(C(=O)NCCCN2CC3CC4CC2CN(C4)C3)c(O)c2ccccc21 (centres unmarked) [Example 6, N-[(1,4-Diazatricyclo[4.3.1.1^3,8]undec-4-yl)propyl]-4-hydroxy-1-isopropyl-2-oxo-1,2-dihydro-quinoline-3-carboxamide]	667 nM	–

Second part, led by results:

EC50 [1]	Compound	further results
1150 nM	CC(C)n1c(=O)c(C(=O)NCCN2C3CC4CC(C3)CC2C4)c(O)c2ccccc21 [Example 17, N-[(2-Azatricyclo[3.3.1.1^3,7]dec-2-yl)ethyl]-4-hydroxy-1-isopropyl-2-oxo-1,2-dihydroquinoline-3-carboxamide hydrochloride]	–
476 nM	CC(C)n1c(=O)c(C(=O)NC23CC4CC2CC(N2CCCC2)(C4)C3)c(O)c2ccccc21 (centres unmarked) [Example 21]	–
2730 nM	CC(C)N1C2CC3CC1CC(NC(=O)c1c(O)c4ccccc4n(C(C)C)c1=O)(C3)C2 [Example 15, N-(2-Isopropyl-2-azatricyclo[3.3.1.1^3,7]dec-5-yl)-4-hydroxy-1-isopropyl-2-oxo-1,2-dihydro-quinoline-3-carboxamide]	–
958 nM	CCCCN1C2CC3CC1CC(NC(=O)c1c(O)c4ccccc4n(C(C)C)c1=O)(C3)C2 [Example 18, N-(2-Butyl-2-azatricyclo[3.3.1.1^3,7]dec-5-yl)-4-hydroxy-1-isopropyl-2-oxo-1,2-dihydroquinoline-3-carboxamide hydrochloride]	–
77 nM	CCCCN1CCC(NC(=O)c2c(O)c3ccccc3n(C(C)C)c2=O)CC1 [Example 20, N-(1-Butylpiperidin-4-yl)-4-hydroxy-1-isopropyl-2-oxo-1,2-dihydroquinoline-3-carboxamide hydrochloride]	–
645 nM	CCN1C2CC3CC1CC(CNC(=O)c1c(O)c4ccccc4n(C(C)C)c1=O)(C3)C2.Cl [Example 19, N-(2-Ethyl-2-azatricyclo[3.3.1.1^3,7]dec-5-ylmethyl)-4-hydroxy-1-isopropyl-2-oxo-1,2-dihydroquinoline-3-carboxamide hydrochloride]	Inference [4]: Active; Exploration time mean ± S.E.M, Familiar object [4, 5]: 8.83 ± 1.54 s; Exploration time mean ± S.E.M, Novel object [4, 5]: 14.09 ± 1.56 s
